{
  "source": "patent US20160007597A1",
  "about": "“TREATING AGENT FOR PLANT CELL WALLS, SUBSTANCE DELIVERY METHOD USING TREATING AGENT, AND SUBSTANCE DELIVERY SYSTEM” (SUNTORY HOLDINGS LIMITED, priority 2013, published 2016)",
  "key": {"[1]": {"tested_on": "onion epidermal cells", "test": "Cell wall permeability: intracellular uptake of GFP or GFP-FT in onion bulb epidermal cells after trypsin treatment (fluorescence microscopy)", "type": "cell-based", "conditions": "0.1 mg GFP, 20 μM R9 peptide", "description": "Various test solutions containing a fluorescent protein, GFP or GFP-FT, and the R9 peptide were prepared and applied to onion bulbs for verification of GFP uptake. The ingredients of the test solutions verified are shown below:\nsalt (NaCl), acidic buffer (citric acid), organic solvent (toluene, ethanol), cell wall lyase (pectolyase), surfactant (saponin, Silwet L-77, Tween 20, Triton X-100, CHAPS, CTAB, SDS), chelator (EGTA, EDTA, CDTA, BAPTA), DMSO, and glycerol.\nOnion bulbs were cut into boat-shaped pieces, and test solutions (100 μl each) prepared at various concentration conditions (0.1× PBS, 1 to 100 mM chelator, 0.005% to 0.05% surfactant, 0.1 mg GFP, 20 μM R9 peptide) were applied to their surface. Each sample was allowed to stand in a dish at room temperature for 12 hours while being kept under humid conditions. Then, the test solutions were removed and the samples were washed with distilled water. After a 0.25% trypsin solution was applied in 100 μl volumes, the samples were allowed to stand for 30 minutes. After removal of the trypsin solution, the samples were washed with distilled water and their epidermal cell layers were peeled to prepare specimens, which were then observed for intracellular uptake of GFP under a fluorescence microscope (Leica, DM6000B)."}, "[2]": {"tested_on": "leaves", "description": "To verify the migration of the FT protein applied to leaves, the shoot apex after application was sampled and analyzed by Western blotting in an attempt to detect the FT protein. To ensure long-term application to leaves, concentration studies were conducted for EDTA."}, "[3]": {"tested_on": "torenia bud cuttings (shoot apex)", "test": "Migration of FT protein applied to leaves to the shoot apex, detected by Western blotting", "type": "in vivo", "conditions": "Condition 3: FT protein, 20 μM R9 peptide, 0.1× PBS, 1 mM EDTA, 0.005% Silwet L-77, applied to leaves twice; sampled one week after the first application", "description": "Bud cuttings were prepared from torenia's branches each including the shoot apex. These branches were cut to an even length of approximately 10 cm containing three nodes or so, each of which was put into a 5 ml tube containing 4 ml of 0.1× PBS, followed by covering the mouth of each tube with a parafilm to avoid evaporation of PBS. Four bud cuttings were prepared for each test group, and test solutions (90 μl each) prepared under three conditions (Condition 1: 0.1× PBS, 1 mM EDTA, 0.005% Silwet L-77; Condition 2: 33 μg/ml FT protein, 0.1× PBS, 1 mM EDTA, 0.005% Silwet L-77; Condition 3: FT protein, 20 μM R9 peptide, 0.1× PBS, 1 mM EDTA, 0.005% Silwet L-77) were applied by being spread thinly over leaves at a position which was two nodes (about 3 cm) apart from the shoot apex. After air drying, these samples were maintained at 25° C. in a thermostatic incubator.\nAfter 3 days, the test solutions were applied again, and after one week of the first application, the shoot apexes were sampled. Proteins were extracted from the shoot apex samples by the acetone method. 250 μl of an extraction buffer (10 mM Tris-HCl (pH 8.0), 0.1% CHAPS, 4.5 mM NaCl, 0.1 mM DTT, 0.2 mM EDTA, complete ULTRA1 tablets (Roche Diagnostics)) was added to each shoot apex sample obtained from 4 bud cuttings, followed by sufficient homogenization in a mixer together with zirconia beads of 4 mm diameter. […]"}, "[4]": {"tested_on": "in vitro shoots of torenia", "test": "Induction of flower buds in in vitro shoots of torenia", "type": "in vivo", "conditions": "torenia in test tubes; 33 μg/ml FT protein, 20 μM R9 peptide, 0.1× PBS, 1 mM EDTA, 0.005% Silwet L-77; applied five times every 2 to 3 days", "description": "(§1) In most cases, in vitro shoots of torenia will form no flower buds in test tubes. Likewise, in vitro shoots of petunia will form no flower buds under short-day conditions. In these in vitro shoots, the FT protein was applied to their leaf surface in an attempt to induce flower buds. To the shoot apex and leaf surface of torenia and petunia cultivated in test tubes, a test solution (33 μg/ml FT protein, 20 μM R9 peptide, 0.1× PBS, 1 mM EDTA, 0.005% Silwet L-77) was applied by being spread thinly to ensure a uniform distribution. Application was repeated five times every 2 to 3 days, and culture was also continued thereafter. As a result, flower buds were formed at around 40 days after application and eventually brought into flower in test tubes (FIG. 4)."}, "[5]": {"tested_on": "in vitro shoots of petunia", "test": "Induction of flower buds in in vitro shoots of petunia", "type": "in vivo", "conditions": "petunia in test tubes; 33 μg/ml FT protein, 20 μM R9 peptide, 0.1× PBS, 1 mM EDTA, 0.005% Silwet L-77; applied five times every 2 to 3 days", "description": "as §1"}, "[6]": {"tested_on": "protoplasts of torenia", "test": "GFP uptake into torenia protoplasts in the presence of R9 peptide (fluorescence microscopy)", "type": "cell-based", "conditions": "0.1 mg GFP", "description": "To verify that the R9 peptide was also evenly effective for plant cells other than cultured cells, protoplasts of torenia were used and observed for their uptake of green fluorescent protein (GFP) in the presence of the R9 peptide. Torenia leaves (0.5 g) were treated in an enzyme solution (1% Onozuka RS, 0.1% pectolyase Y-23, 0.45 M mannitol) at 30° C. for 2 hours to prepare protoplasts. The protoplasts were washed with 0.45 M mannitol and then divided into 50 μl aliquots, followed by centrifugation to prepare protoplasts. The protoplasts were each suspended in 50 μl of a buffer (0.45 M mannitol, 1× PBS, 0.1 mg GFP, (0, 20, 200 μM) R9 peptide) and observed for intracellular migration of GFP under a fluorescence microscope (FIG. 1)."}, "[7]": {"conditions": "combination of 1 to 50 mM EDTA or EGTA and 0.005% to 0.01% Silwet L-77 or Tween 20, 12 hours"}},
  "note": "Where two headings read alike, the source gives them in different places.",
  "data": [
    {"compound": "O=C(O)CN(CCN(CC(=O)O)CC(=O)O)CC(=O)O", "note": "[EDTA, ethylenediaminetetraacetic acid]", "values": [
      {"measurement": "intracellular GFP fluorescence after trypsin treatment", "setting": "[1]; [7]", "result": "granular GFP fluorescence was strongly observed"},
      {"measurement": "damage to leaves", "setting": "[2]; 1 mM EDTA", "result": "able to be used without any problems"},
      {"measurement": "damage to leaves", "setting": "[2]; 100 mM EDTA", "result": "cause damage to leaves"}
    ]},
    {"compound": "O=C(O)CN(CCOCCOCCN(CC(=O)O)CC(=O)O)CC(=O)O", "note": "[EGTA, O,O′-bis(2-aminoethyl)ethylene glycol-N,N,N′,N′-tetraacetic acid]", "values": [
      {"measurement": "intracellular GFP fluorescence after trypsin treatment", "setting": "[1]; [7]", "result": "granular GFP fluorescence was strongly observed"}
    ]},
    {"compound": "FT protein: FLOWERING LOCUS T protein, promoter for flowering in whole plants (florigen)", "values": [
      {"measurement": "FT protein signal in the shoot apex (Western blotting)", "setting": "[3]", "result": "FT protein signals were able to be detected in the shoot apex"},
      {"measurement": "time of flower bud formation after application", "setting": "[4]", "result": "around 40 days"},
      {"measurement": "time of flower bud formation after application", "setting": "[5]", "result": "around 40 days"}
    ]},
    {"compound": "R9 peptide: cell penetrating peptide composed of 9 arginine residues (RRRRRRRRR)", "values": [
      {"measurement": "number of cells showing GFP uptake with increase in R9 peptide concentration", "setting": "[6]; 0, 20, 200 μM R9 peptide", "result": "cells showing GFP uptake were confirmed to increase in number"},
      {"measurement": "GFP uptake into protoplasts", "setting": "[6]; 200 μM R9 peptide, 0.45 M mannitol, 1× PBS", "result": "good GFP uptake was observed"},
      {"measurement": "intracellular GFP fluorescence after trypsin treatment", "setting": "[1]; chelator-free and surfactant-free test solution, 12 hours at room temperature", "result": "no fluorescence was observed within the cells"}
    ]},
    {"compound": "polyoxyethylene sorbitan monolaurate [Tween 20]", "values": [
      {"measurement": "intracellular GFP fluorescence after trypsin treatment", "setting": "[1]; [7]", "result": "granular GFP fluorescence was strongly observed"}
    ]}
  ]
}
